Here are results for nine molecules from US20220226340A1, “CASEIN KINASE 1 INHIBITORS FOR USE IN THE TREATMENT OF DISEASES RELATED TO DUX4 EXPRESSION SUCH AS MUSCULAR DYSTROPHY AND CANCER” (Facio Intellectual Property B.V., priority 2019, published 2022).

In assay [1] the target is p38α (Homo sapiens, UniProt Q16539). In words: p38α inhibition IC50. The format is biochemical.
Assay [2] concerns primary FSHD cells. As to the kind of experiment: fusion index (myotube fusion) readout of the high-content assay in primary FSHD cells. Type of assay: cell-based, human. The conditions noted are these: for effect on fusion index / myotube fusion: 72 h treatment, compound present during whole differentiation; for myotube formation in the presence of increasing concentrations of losmapimod: 72 h, CK1 inhibitor combined with losmapimod, microscopic images. From the text:
(§1) A quantitative assay readout was developed based on script-based image analysis. […] To analyse the images, an automated script was developed, enabling the detection of nuclei, myotube borders and DUX4 signals, with the script also detecting artefacts to reduce false positive signals. The script enabled multiple validated readouts including the number of DUX4 positive nuclei and nuclei clusters, the fusion index, myotube area, myotube width and myotube skeleton length (see FIG. 2). Additionally, the total nuclei count was included as a measure of cell loss or compound toxicity.
(§2) Compounds are administered either 15 h before fixation, resembling the original screening protocol, or 72 h before fixation (grey arrow). In the latter case, compounds are present during the whole differentiation process.

Assay [3] has as its target CK1α (Homo sapiens, UniProt P48729). In words: CK1α inhibition IC50. The format is biochemical.
Assay [4] deals with pancreatic tumor cell. As to conditions: in vitro and in vivo; cited from earlier work.
Assay [5] addresses CK1δ (Homo sapiens, UniProt P48730). As to the kind of experiment: CK1δ inhibition IC50. The format is biochemical.
For assay [6], the system named is DUX4. As to the kind of experiment: high-content immunocytochemistry assay of endogenous DUX4 expression in differentiating primary FSHD myotubes. The format is cell-based, human. As to conditions: for EC50: Homo sapiens, Myotube.
Excerpt: as §1
A compound library containing approximately 5000 annotated compounds was screened in the high-content assay. For this purpose, primary myoblasts were seeded in 384 well plates after which the growth medium was replaced with differentiation medium. After 3 days of differentiation, cells were treated with library compounds (in duplicate on different screening plates) for 15 h, after which they were fixed and stained with antibodies against DUX4, antibodies against myosin heavy chain (MHC), and with DAPI (4′,6-diamidino-2-phenylindole). Script-based analysis provided readouts for DUX4 expression (count of DUX4-positive nuclei or DUX4 intensity) and for potential toxicity (fusion index and nuclei count).
Compounds were incubated with primary FSHD cells for 15 hours, as indicated by the arrow in FIG. 4A.
as §2

The target of assay [7] is CK1ε (Homo sapiens, UniProt P49674). In words: CK1ε inhibition IC50. Type of assay: biochemical.
The subject of assay [8] is DUX4. As to conditions: immortalised differentiated myotube cultures; cited from earlier work.
Setting [9] is: Table 7, p38 compounds, read-out: IC50 p38.
Setting [10] is: Table 7, p38 compounds, read-out: IC50 CK1a.
The mark [11] stands for this setting: 72 h, Table 4, 72 h treatment protocol, read-out: DUX4 EC50.
Where [12] appears, read: 72 h, Table 6, 72 h treatment protocol, read-out: DUX4 EC50.

Molecules are shown by their SMILES. Read-outs that look alike come from different tables or passages of the source.

CK1ε, sequence (P49674 whole entry): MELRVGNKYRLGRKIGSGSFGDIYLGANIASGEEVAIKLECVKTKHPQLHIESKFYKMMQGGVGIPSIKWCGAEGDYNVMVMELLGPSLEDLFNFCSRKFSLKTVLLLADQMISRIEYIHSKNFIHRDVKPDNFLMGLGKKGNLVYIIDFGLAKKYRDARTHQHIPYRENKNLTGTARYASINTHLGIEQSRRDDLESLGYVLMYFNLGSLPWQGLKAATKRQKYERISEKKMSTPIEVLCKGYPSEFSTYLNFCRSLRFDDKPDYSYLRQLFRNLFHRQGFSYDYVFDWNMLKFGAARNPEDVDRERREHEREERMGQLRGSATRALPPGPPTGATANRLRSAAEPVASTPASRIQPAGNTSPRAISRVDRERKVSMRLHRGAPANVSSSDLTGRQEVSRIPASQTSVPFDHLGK
CK1δ, sequence (P48730 whole entry): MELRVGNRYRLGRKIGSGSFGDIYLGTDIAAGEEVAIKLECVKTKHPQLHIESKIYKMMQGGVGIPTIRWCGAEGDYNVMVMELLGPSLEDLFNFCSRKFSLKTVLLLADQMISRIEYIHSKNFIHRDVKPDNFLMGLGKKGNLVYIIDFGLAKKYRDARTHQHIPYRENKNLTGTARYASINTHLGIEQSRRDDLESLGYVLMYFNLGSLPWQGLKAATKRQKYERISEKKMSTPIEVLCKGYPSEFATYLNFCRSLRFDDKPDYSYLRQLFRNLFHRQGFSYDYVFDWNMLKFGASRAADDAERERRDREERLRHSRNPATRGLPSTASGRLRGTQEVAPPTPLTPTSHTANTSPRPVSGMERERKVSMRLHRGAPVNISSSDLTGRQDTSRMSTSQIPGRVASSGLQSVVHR
CK1α, sequence (P48729 whole entry): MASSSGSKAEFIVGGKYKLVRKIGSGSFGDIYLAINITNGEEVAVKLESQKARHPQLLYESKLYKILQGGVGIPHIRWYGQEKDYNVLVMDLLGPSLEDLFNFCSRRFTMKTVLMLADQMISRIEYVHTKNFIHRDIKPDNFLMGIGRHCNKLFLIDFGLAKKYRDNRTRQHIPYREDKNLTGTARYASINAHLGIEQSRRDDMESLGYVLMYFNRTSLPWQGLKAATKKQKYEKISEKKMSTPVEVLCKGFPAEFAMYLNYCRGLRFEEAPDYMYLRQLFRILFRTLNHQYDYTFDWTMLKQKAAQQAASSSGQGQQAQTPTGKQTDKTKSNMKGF
p38α, sequence (Q16539 whole entry, the tested form may be a part): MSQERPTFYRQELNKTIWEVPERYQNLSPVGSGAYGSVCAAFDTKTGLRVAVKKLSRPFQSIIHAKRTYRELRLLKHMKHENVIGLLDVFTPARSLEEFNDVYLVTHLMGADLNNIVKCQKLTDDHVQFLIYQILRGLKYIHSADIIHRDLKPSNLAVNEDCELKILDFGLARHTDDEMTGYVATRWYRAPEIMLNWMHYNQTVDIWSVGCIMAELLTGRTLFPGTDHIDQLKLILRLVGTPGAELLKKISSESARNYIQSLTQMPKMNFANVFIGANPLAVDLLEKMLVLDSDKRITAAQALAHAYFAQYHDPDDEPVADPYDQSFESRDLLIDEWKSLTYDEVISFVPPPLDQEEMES

For the molecule `Cc1ccc(C(=O)NC2CC2)cc1-n1ncc(C(=O)c2cccc(C#N)c2)c1N` [Acumapimod, reference compound], the IC50 in assay [1] (setting [9]) is 22 nM; in assay [3] (setting [10]), > 10000 nM. Also, the “effect on fusion index / myotube fusion” value in assay [2] is “inhibited the fusion index”.
Turning to `COc1cc(OC)c(C=C2C(O)=Nc3ccccc32)c(OC)c1` [IC261], the “pancreatic tumor cell growth” value in assay [4] is given as “reduces pancreatic tumor cell growth”.
In the case of `CC(C)(C)Cn1c(N)nc2ccc(-c3[nH]c(C(C)(C)C)nc3-c3ccc(F)cc3)nc21` [LY2228820, reference compound], the IC50 in assay [1] (setting [9]) was 14 nM; in assay [3] (setting [10]), > 10000 nM; in assay [5] (Table 7, p38 compounds, read-out: IC50 CK1d), 2780 nM. Besides, the “effect on fusion index / myotube fusion” value in assay [2] is recorded as “inhibited the fusion index”.
In the case of `CC1(C)CN(c2ccc3nc(-c4ccc(F)cc4)c(-c4ccncc4)n3n2)CCN1` [Nr. 1], the IC50 in assay [1] (Table 3, read-out: p38a IC50) was 13.2 nM; in assay [1] (Table 4, read-out: p38a IC50), 13.2 nM; in assay [3] (Table 3, read-out: CK1 a IC50) it was 29.5 nM; in assay [3] (Table 4, read-out: CK1 a IC50) it was 29.5 nM; in assay [3] (Table 6, read-out: IC50 CK1α), 29 nM; in assay [7] (Table 3, read-out: CK1 e IC50), 12.4 nM. In addition, the IC50 in assay [7] (Table 4, read-out: CK1 e IC50) is 12.4 nM; in assay [5] (Table 3, read-out: CK1 d IC50), 18.5 nM; in assay [5] (Table 4, read-out: CK1 d IC50), 18.5 nM; in assay [5] (Table 6, read-out: IC50 CK1δ), 18 nM. Also, the EC50 was determined as 40 nM in assay [6] (15 h, Table 3, 15 h treatment protocol, primary FSHD cells, read-out: EC50 for DUX4 repression); 40 nM in assay [6] (setting [11]); 40 nM in assay [6] (setting [12]).
As to `Cn1cc(-c2ccnc3c2C(=O)OC3)c(-c2ccc(F)cc2)n1` [Nr. 4], in assay [2], the “myotube formation in the presence of increasing concentrations of losmapimod” value was “myotube formation is still intact”. The EC50 in assay [6] (setting [11]) and in assay [6] (setting [12]) was 4800 nM each time. Besides, the IC50 in assay [7] (Table 6, read-out: IC50 CK1ε) was 52 nM; in assay [5] (Table 6, read-out: IC50 CK1δ), 33 nM.
Regarding `CN1Cc2nccc(-c3cn(C)nc3-c3ccc(F)cc3)c2C1=O` [Nr. 5], the “myotube formation in the presence of increasing concentrations of losmapimod” value in assay [2] is on record as “myotube formation is still intact”. The EC50 in assay [6] (15 h, read-out: DUX4 EC50) was 1890 nM; in assay [6] (15 h, read-out: EC50 for DUX4 repression) it was 1900 to 3100 nM; in assay [6] (72 h, read-out: DUX4 EC50) it was 6700 nM.
Turning to `Fc1ccc(-c2nc3ccc(N4CCNCC4)nn3c2-c2ccncc2)cc1` [Nr. 8], the IC50 was determined as 15 nM in assay [1] (Table 6, read-out: IC50 p38α); 9 nM in assay [7] (Table 6, read-out: IC50 CK1ε); 16 nM in assay [5] (Table 6, read-out: IC50 CK1δ). In addition, the “myotube formation in the presence of increasing concentrations of losmapimod” value in assay [2] is on record as “myotube formation is still intact”. Also, the “effect on DUX4” value in assay [6] (72 h treatment) is given as “near maximal DUX4 inhibition”. Further, the EC50 in assay [6] (setting [11]) is 10 to 60 nM; in assay [6] (setting [12]), 10 nM.
For `COc1cc(OC)c2c(=O)[nH]c(-c3cc(C)c(OCCO)c(C)c3)nc2c1` [RVX-208, reference compound], in assay [6] (irrespective of treatment time (15 h or 72 h)), the “effect on DUX4 expression” value is “did not show any effect on DUX4 expression”. The “expression of DUX4” value in assay [8] was “can inhibit the expression of DUX4”.
As to `Cc1cc(F)ccc1-c1nc(NC(CO)CO)nc2c1ccc(=O)n2-c1c(F)cccc1F` [SB-681323, reference compound], the figures for the IC50 in assay [1] (setting [9]) and in assay [3] (setting [10]) were 11 nM and > 10000 nM, respectively. In addition, in assay [2], the “effect on fusion index / myotube fusion” value is “inhibited the fusion index”.
